Data on 14 compounds can be found in US20240018157A1, “CYCLIC COMPOUNDS AND METHODS OF USING SAME” (Schrödinger, Inc., priority 2019, published 2024).

For assay [1], the target named is T1, full-length MALT1 protein His-MALT1(1-824) (Homo sapiens (Human), UniProt Q9UDY8). Kind of assay: MALT1 protease assay, Assay 1 (2 nM MALT1, Ac-LRSR-AMC substrate). The assay is classed as biochemical. Particulars: 2 nM MALT1, 50 μM Ac-LRSR-AMC, 2 h pre-incubation, 8 hr incubation at RT. The method, then: MALT1 protease activity was assessed in an in vitro assay using a tetrapeptide as substrate and full-length MALT1 protein His-MALT1(1-824) purified from baculovirus-infected insect cells.
The final assay buffer includes 1 nM (Assay 2) or 2 nM (Assay 1) of MALT1 full-length protein, 50 μM Ac-LRSR-AMC substrate, 50 mM Tris pH 7.5, 600 mM Sodium Citrate, 1 mM DTT, 1 mM EDTA, and 0.05% BSA in 384-well plate format using black microtiter square well plates (Optiplate 384-F, Perkin Elmer).
Test compounds were dissolved in 100% DMSO at stock of 10 mM, with final DMSO concentration 0.1%. Test compounds were pre-incubated with MALT1 protein for 2 h at room temperature. Substrate was added after the pre-incubation and fluorescence signal was measured using Envision at excitation 355 nm and emission 460 nm after 8 hr incubation at RT. Increase in the assay signal was linear over this period and proportional with increase in the enzyme content.
The fluorescence units were transformed to percentage of remaining activity by using the high control (HC, median of fluorescence signal from wells containing MALT1 protein, substrate, and DMSO) and low control (LC, median of fluorescence signal from wells with substrate only) with the formula below: […]
IC50 and Hill coefficient were obtained using Graph Pad Prism (Graph Pad software, Inc, USA) with non-linear regression analysis.

The test system of assay [2] is IL10 secretion, OCI-LY10 cells. Kind of assay: Human IL10 secretion assay, Assay 2 (Meso Scale Discovery). The note with it: 24 h incubation, MSD, read-out: IL-10 Secretion IC50 [nM] Assay 2. The assay is classed as cell-based. As for the experimental part:
(§1) IL10 is one of the cytokines that are regulated via activation of NF-kB signaling. For example, in ABC-DLBCL cell lines, the activated NF-kB signaling leads to increased IL10 secretion. Inhibition of NF-kB signaling has been shown leading to decreased IL10 secretion.
Assay 2: OCI-LY10 cells were seeded in IMEM supplemented with 20% fetal bovine serum at 4.8×10^5 cells per 160 μL per well in 96-well V-bottom cell culture plates (coming, 3894), treated with 120 nL of 3-fold serial compound dilutions, starting at 4 mM. The final vehicle concentration was 0.075% DMSO in all wells. After a 24 h incubation, human IL-10 pre-coated plates (Meso Scale Discovery) were washed 3 times with PBST, and 50 μL culture medium was aspirated into the MSD plate and incubated at 4° C. overnight. The supernatant was then discarded and the wells were washed 3 times with PBST. SULFO-TAG Anti-human IL-10 Antibody (50×) was diluted 50 fold according to the Meso Scale Protocol, then 25 μL of SULFO-TAG Anti-human IL-10 Antibody (1×) was added. After 2 h of incubation at RT, the supernatant was discarded and the well was washed 3 times with PBST. 2× read buffer was added and the signal was read on an MSD Sector S600. The effect of a particular compound on IL10 secretion is shown relative to the effect of DMSO; set as 100%. IC50 values (nM) were determined using 4-parametric curve-fitting.

In assay [3] the target is T1, full-length MALT1 protein His-MALT1(1-824). Kind of assay: MALT1 protease assay, Assay 2 (1 nM MALT1, Ac-LRSR-AMC substrate). The assay is classed as biochemical. The note with it: 1 nM MALT1, 50 μM Ac-LRSR-AMC, 2 h pre-incubation, 8 hr incubation at RT. In a few lines: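 His-MALT1(1-824) from baculovirus-infected insect cells at 1 nM, preincubated 2 h at RT with compound (0.1% DMSO), then 50 μM Ac-LRSR-AMC in 50 mM Tris pH 7.5, 600 mM sodium citrate, 1 mM DTT, 1 mM EDTA, 0.05% BSA. Fluorescence (ex 355/em 460 nm) after 8 h at RT, normalized to enzyme and substrate-only controls. IC50 and Hill coefficient by non-linear regression.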

Assay [4] concerns IL10 secretion, OCI-LY10 cells. Kind of assay: Human IL10 secretion assay, Assay 1 (HTRF). The assay is classed as cell-based. The note with it: 24 h incubation, read-out: IL-10 Secretion IC50 [nM] Assay 1. The method, then: as §1
Assay 1: OCI-LY10 cells were seeded in IMEM supplemented with 20% fetal bovine serum at 3×10^5 cells per well in 96-well round bottom plates (Corning 3799, Corning), treated with 100 nL of 3-fold serial compound dilutions, starting at 10 mM. The final vehicle concentration was 0.1% DMSO in all wells. After 24 h incubation, the cells were transferred to 96-PCR plates (Axygen: PCR-96-FLT-C) and centrifuged, then 16 μL of cell culture media was transferred to HTRF plates and IL10 levels were measured using human IL-10 Assay Kits (Cisbio) using HTRF format. The signals were transformed to percentage of remaining activity by using the high control (HC, median of signal from wells containing cells treated with DMSO) and low control (LC, median of signal from wells with no cells). IC50 values (nM) were determined using 4-parametric curve-fitting and Hill coefficient were obtained using Graph Pad Prism (Graph Pad software, Inc, USA) with non-linear regression analysis.
On the technique in general: Time-resolved FRET reads energy transfer from a long-lived donor to a nearby acceptor.

T1 sequence (Q9UDY8 whole entry): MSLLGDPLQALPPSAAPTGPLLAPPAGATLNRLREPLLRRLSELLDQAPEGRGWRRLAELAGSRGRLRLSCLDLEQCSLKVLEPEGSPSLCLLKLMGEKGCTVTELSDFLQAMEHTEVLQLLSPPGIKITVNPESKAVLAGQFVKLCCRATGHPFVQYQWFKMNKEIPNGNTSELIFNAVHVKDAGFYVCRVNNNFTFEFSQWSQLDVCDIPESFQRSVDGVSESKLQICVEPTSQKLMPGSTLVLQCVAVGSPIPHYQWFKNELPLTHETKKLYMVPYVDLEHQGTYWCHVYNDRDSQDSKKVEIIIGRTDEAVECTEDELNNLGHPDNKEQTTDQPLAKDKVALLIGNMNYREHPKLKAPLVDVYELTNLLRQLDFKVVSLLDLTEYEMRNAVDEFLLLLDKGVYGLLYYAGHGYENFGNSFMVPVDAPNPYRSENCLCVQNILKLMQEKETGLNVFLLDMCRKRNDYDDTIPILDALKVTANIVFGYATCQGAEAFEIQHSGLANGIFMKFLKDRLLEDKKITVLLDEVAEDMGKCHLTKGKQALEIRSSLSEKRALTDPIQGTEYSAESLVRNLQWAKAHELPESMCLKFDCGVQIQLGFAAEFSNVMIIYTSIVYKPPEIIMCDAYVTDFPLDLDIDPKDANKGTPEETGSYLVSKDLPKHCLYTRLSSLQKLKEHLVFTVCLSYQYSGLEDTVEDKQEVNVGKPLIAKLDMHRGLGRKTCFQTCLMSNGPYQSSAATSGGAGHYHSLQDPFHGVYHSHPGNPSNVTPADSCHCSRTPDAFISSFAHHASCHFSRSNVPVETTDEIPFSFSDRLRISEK

A word on the IC50: it is the concentration that inhibits the measured activity by half. In assay [1], `CC1(C(F)(F)F)CN(C(=O)Nc2cnc(-n3nccn3)c(Cl)c2)c2cnc3cc(C#N)nn3c21` (stereo not shown) [compound 17, N-[5-chloro-6-(triazol-2-yl)-3-pyridyl]-11-cyano-3-methyl-3-(trifluoromethyl)-1,5,8,12-tetrazatricyclo[7.3.0.02,6]dodeca-2(6),7,9,11-tetraene-5-carboxamide] came in with an IC50 of 10 to 100 nM.
As for `COc1cn(-c2ncc(NC(=O)N3C[C@@](C)(C(F)(F)F)c4c3cnc3cc(Cl)nn43)cc2Cl)nn1` [compound 95, (R)-2-chloro-N-(5-chloro-6-(4-methoxy-1H-1,2,3-triazol-1-yl)pyridin-3-yl)-8-methyl-8-(trifluoromethyl)-7,8-dihydro-6H-pyrazolo[1,5-a]pyrrolo[2,3-e]pyrimidine-6-carboxamide], the half-inhibitory concentration (IC50) in assay [2] and in assay [3] was 10 to 100 nM in each case.
For the compound `C[C@@]1(C(F)(F)F)CN(C(=O)Nc2cc(C(F)(F)F)ncc2F)c2cnc3cc(Cl)nn3c21` [compound 96, (R)-2-chloro-N-(5-fluoro-2-(trifluoromethyl)pyridin-4-yl)-8-methyl-8-(trifluoromethyl)-7,8-dihydro-6H-pyrazolo[1,5-a]pyrrolo[2,3-e]pyrimidine-6-carboxamide], the IC50 in assay [2] fell in the range of 100 to 1000 nM; in assay [3], 10 to 100 nM.
Regarding `CN1CC[C@H](Oc2cc(NC(=O)N3C[C@@](C)(C(F)(F)F)c4c3cnc3cc(Cl)nn43)cc(C(F)F)n2)C1` [compound 111, (R)-2-chloro-N-(2-(difluoromethyl)-6-(((S)-1-methylpyrrolidin-3-yl)oxy)pyridin-4-yl)-8-methyl-8-(trifluoromethyl)-7,8-dihydro-6H-pyrazolo[1,5-a]pyrrolo[2,3-e]pyrimidine-6-carboxamide], the half-maximal inhibitory concentration (IC50) in assay [2], in assay [4] and in assay [3] was 10 to 100 nM each time.
With `C[C@@]1(C(F)(F)F)CN(C(=O)Nc2cnc(N3CCOC3=O)c(C(F)F)c2)c2cnc3cc(Cl)nn3c21` [compound 113, (R)-2-chloro-N-(5-(difluoromethyl)-6-(2-oxooxazolidin-3-yl)pyridin-3-yl)-8-methyl-8-(trifluoromethyl)-7,8-dihydro-6H-pyrazolo[1,5-a]pyrrolo[2,3-e]pyrimidine-6-carboxamide], the IC50 was 10 to 100 nM in assay [2], 100 to 1000 nM in assay [4] and 10 to 100 nM in assay [3].
Regarding `CN(C)C(=O)c1ncc(NC(=O)N2C[C@@](C)(C(F)(F)F)c3c2cnc2cc(Cl)nn32)cc1Cl` [compound 123, (R)-2-chloro-N-(5-chloro-6-(dimethylcarbamoyl)pyridin-3-yl)-8-methyl-8-(trifluoromethyl)-7,8-dihydro-6H-pyrazolo[1,5-a]pyrrolo[2,3-e]pyrimidine-6-carboxamide], the concentration for half-maximal inhibition (IC50) in assay [2], in assay [4] and in assay [3] was 10 to 100 nM in each case.
Take `C[C@@]1(C(F)(F)F)CN(C(=O)Nc2cc(OC(F)F)cc(O[C@H]3CCNC3)n2)c2cnc3cc(Cl)nn3c21` [compound 133, (R)-2-chloro-N-(4-(difluoromethoxy)-6-(((S)-pyrrolidin-3-yl)oxy)pyridin-2-yl)-8-methyl-8-(trifluoromethyl)-7,8-dihydro-6H-pyrazolo[1,5-a]pyrrolo[2,3-e]pyrimidine-6-carboxamide]: the results for the IC50 in assay [2], in assay [4] and in assay [3] were 10 to 100 nM, 100 to 1000 nM and 10 to 100 nM, respectively.
Regarding `Cc1cn2ncc3c(c2n1)C(C)(C)CN3C(=O)Nc1cnc(-n2nccn2)c(Cl)c1` [compound 134, N-(5-chloro-6-(2H-1,2,3-triazol-2-yl)pyridin-3-yl)-2,9,9-trimethyl-8,9-dihydro-7H-imidazo[1,2-b]pyrrolo[3,2-d]pyridazine-7-carboxamide], the IC50 is 10 to 100 nM in assay [2], 100 to 1000 nM in assay [4] and 10 to 100 nM in assay [3].
As for `CN(C(=O)c1ncc(NC(=O)N2C[C@@](C)(C(F)(F)F)c3c2cnc2cc(Cl)nn32)cc1C(F)F)C1CC1` [compound 151, (R)-2-chloro-N-(6-(cyclopropyl(methyl)carbamoyl)-5-(difluoromethyl)pyridin-3-yl)-8-methyl-8-(trifluoromethyl)-7,8-dihydro-6H-pyrazolo[1,5-a]pyrrolo[2,3-e]pyrimidine-6-carboxamide], the IC50 in assay [2] and in assay [4] was 10 to 100 nM in each case.
Take `C[C@@]1(C(F)(F)F)CN(C(=O)Nc2cnc(-n3nccn3)c(C(F)(F)F)c2)c2cnc3cc(F)nn3c21` [compound 181, (R)-N-(6-(2H-1,2,3-triazol-2-yl)-5-(trifluoromethyl)pyridin-3-yl)-2-fluoro-8-methyl-8-(trifluoromethyl)-7,8-dihydro-6H-pyrazolo[1,5-a]pyrrolo[2,3-e]pyrimidine-6-carboxamide]: the 50% inhibitory concentration (IC50) in assay [2] and in assay [4] was 10 to 100 nM each time.
Consider `CC(O)c1cnnn1-c1ncc(NC(=O)N2C[C@@](C)(C(F)(F)F)c3c2cnc2cc(F)nn32)cc1C(F)F` (stereo partly drawn) [compound 188, (8R)-N-(5-(difluoromethyl)-6-(5-(1-hydroxyethyl)-1H-1,2,3-triazol-1-yl)pyridin-3-yl)-2-fluoro-8-methyl-8-(trifluoromethyl)-7,8-dihydro-6H-pyrazolo[1,5-a]pyrrolo[2,3-e]pyrimidine-6-carboxamide], for which the IC50 in assay [2] fell in the range of 10 to 100 nM; in assay [4], 100 to 1000 nM; in assay [3] it was 10 to 100 nM.
Take `CC(O)c1cnn(-c2ncc(NC(=O)N3C[C@@](C)(C(F)(F)F)c4c3cnc3cc(F)nn43)cc2C(F)F)n1` (stereo partly drawn) [compound 191, (8R)-N-(5-(difluoromethyl)-6-(4-(1-hydroxyethyl)-2H-1,2,3-triazol-2-yl)pyridin-3-yl)-2-fluoro-8-methyl-8-(trifluoromethyl)-7,8-dihydro-6H-pyrazolo[1,5-a]pyrrolo[2,3-e]pyrimidine-6-carboxamide]: the IC50 in assay [2] and in assay [4] was 10 to 100 nM throughout.
`O=C(Nc1cnc(-n2nccn2)c(Cl)c1)N1CC(O)(C(F)(F)F)c2c1cnc1cc(Cl)nn21` (stereo not shown) [compound 201, 2-chloro-N-(5-chloro-6-(2H-1,2,3-triazol-2-yl)pyridin-3-yl)-8-hydroxy-8-(trifluoromethyl)-7,8-dihydro-6H-pyrazolo[1,5-a]pyrrolo[2,3-e]pyrimidine-6-carboxamide]: the concentration for half-maximal inhibition (IC50) in assay [2] and in assay [4] was 10 to 100 nM in each case.
In the case of `C[C@@]1(C(F)(F)F)CN(C(=O)Nc2cnc(-n3cncn3)c(Cl)c2)c2cnc3cc(F)nn3c21` [compound 202, (R)-N-(5-chloro-6-(1H-1,2,4-triazol-1-yl)pyridin-3-yl)-2-fluoro-8-methyl-8-(trifluoromethyl)-7,8-dihydro-6H-pyrazolo[1,5-a]pyrrolo[2,3-e]pyrimidine-6-carboxamide], the IC50 in assay [2] lay within 10 to 100 nM; in assay [4], 100 to 1000 nM; in assay [3], 10 to 100 nM.
